From patent US8765730B2 (Hoffmann-La Roche Inc, priority 2010, dated 2014) come the findings set out here.

By EC50 is commonly meant the concentration that produces a half-maximal response.

The first test deals with T1, human GPBAR1 receptor (Homo sapiens, UniProt Q8TDU6).
T1 construct: expressed in transfected cells
T1 sequence (Q8TDU6 1-330): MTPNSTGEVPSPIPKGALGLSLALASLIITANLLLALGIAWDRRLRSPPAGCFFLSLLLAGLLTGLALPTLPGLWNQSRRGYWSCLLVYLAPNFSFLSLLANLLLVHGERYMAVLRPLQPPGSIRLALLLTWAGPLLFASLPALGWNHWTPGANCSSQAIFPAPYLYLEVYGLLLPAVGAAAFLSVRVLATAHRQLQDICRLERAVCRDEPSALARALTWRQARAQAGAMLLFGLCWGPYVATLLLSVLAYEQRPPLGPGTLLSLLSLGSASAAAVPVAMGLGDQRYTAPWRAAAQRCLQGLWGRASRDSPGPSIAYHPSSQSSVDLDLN
In words: functional cAMP assay in CHO-dhfr(minus) cells expressing human GPBAR1 receptors. Format: cell-based. The following applies: functional cAMP assay, 30 min at 30° C., read-out: human EC50. The procedure, abridged:
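Agonist cAMP read-out: stable GPBAR1 CHO-dhfr− clone, 30 min compound exposure at 30° C following 30 min IBMX (1 mM) preincubation in Krebs Ringer bicarbonate. Time-resolved energy-transfer detection gives EC50; parental CHO cells serve as counter-screen.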
In general terms: Cyclic AMP is a second messenger, typically raised through Gs and lowered through Gi signalling.
For the molecule `O/N=C(/CC(O)(c1ccccc1)c1ccccc1)c1ccncc1` [Example 155, (Z)-3-Hydroxy-3,3-diphenyl-1-pyridin-4-yl-propan-1-one oxime], the EC50 was found to be 8620 nM.

For the molecule `O/N=C(\CC(c1ccccc1)c1ccc(Br)cc1)c1ccncc1` (stereo not shown) [Example 5, (E)-3-(4-Bromo-phenyl)-3-phenyl-1-pyridin-4-yl-propan-1-one oxime], the 50% effective concentration (EC50) is 19 nM.

The test is the same for the next values; noted with them: human EC50, functional cAMP assay, 30 min at 30° C.
For the molecule `Cc1cc(Cl)ccc1[C@@H](C/C(=N\O)c1ccc(=O)n(C)c1)c1ccc(-c2ccc(NS(C)(=O)=O)cc2)cc1` (single isomer, unassigned) [Example 416, (+)-N-{4′-[1-(4-Chloro-2-methyl-phenyl)-3-[(E)-hydroxyimino]-3-(1-methyl-6-oxo-1,6-dihydro-pyridin-3-yl)-propyl]-biphenyl-4-yl}-methanesulfonamide], the EC50 turned out to be 18 nM.

For the molecule `Cc1cc(Cl)ccc1C(C/C(=N\O)c1ccc(=O)n(C)c1)c1ccc(Oc2ccc(Cl)c(C(=O)O)c2)cc1` (stereo not shown) [Example 347, 2-Chloro-5-{4-[1-(4-chloro-2-methyl-phenyl)-3-[(E)-hydroxyimino]-3-(1-methyl-6-oxo-1,6-dihydro-pyridin-3-yl)-propyl]-phenoxy}-benzoic acid], the EC50 is 119 nM.

For `Cc1cc(Cl)ccc1C(C/C(=N\O)c1ccc(=O)n(C)c1)c1ccc(N2CCCC2=O)cc1` (stereo not shown) [Example 355, 5-{3-(4-Chloro-2-methyl-phenyl)-1-[(E)-hydroxyimino]-3-[4-(2-oxo-pyrrolidin-1-yl)-phenyl]-propyl}-1-methyl-1H-pyridin-2-one], the concentration giving a half-maximal response (EC50) stood at 110 nM.

Regarding `Cc1cc(/C(C[C@H](c2ccc(-c3nnc(C4CCOCC4)o3)cc2)c2ccccc2C)=N/O)ccn1` [Example 421, ((−), E)-1-(2-Methyl-pyridin-4-yl)-3-{4-[5-(tetrahydro-pyran-4-yl)-[1,3,4]oxadiazol-2-yl]-phenyl}-3-o-tolyl-propan-1-one oxime], the midpoint of the response, the EC50, lay at 30 nM.

In turn, `CC(/C(=N\O)c1ccncc1)C(c1ccccc1)c1ccccc1` (stereo not shown) [Example 153, (E)-2-Methyl-3,3-diphenyl-1-pyridin-4-yl-propan-1-one oxime] yielded an EC50 of 151 nM.

The molecule `COC(=O)c1ccc(-c2ccc(C(C/C(=N\O)c3ccnc(C)c3)c3ccc(Cl)cc3F)cc2)cc1OC` (stereo not shown) [Example 454, 4′-[1-(4-Chloro-2-fluoro-phenyl)-3-[(E)-hydroxyimino]-3-(2-methyl-pyridin-4-yl)-propyl]-3-methoxy-biphenyl-4-carboxylic acid methyl ester] showed an EC50 of 270 nM.

Molecule `C=CCC(C/C(=N\O)c1ccc(=O)n(C)c1)c1ccc(Br)cc1` (stereo not shown) [Example 176, 5-{3-(4-Bromo-phenyl)-1-[(E)-hydroxyimino]-hex-5-enyl}-1-methyl-1H-pyridin-2-one] had an EC50 of 369 nM.

In turn, `Cc1cc(/C(CC(c2ccc(-c3ccc(C(=O)O)cc3)cc2)c2ccc(Cl)cc2C)=N/O)ccn1` (single isomer, unassigned) [Example 396, (−)-4′-[1-(4-Chloro-2-methyl-phenyl)-3-[(E)-hydroxyimino]-3-(2-methyl-pyridin-4-yl)-propyl]-biphenyl-4-carboxylic acid; compound with triethylamine 1:0.7] had an EC50 of 29 nM.

In the case of `Cc1cc(/C(C[C@H](c2ccc(C3CCNCC3)cc2)c2ccc(Cl)cc2C)=N/O)ccn1` [Example 388, (R,E)-3-(4-chloro-2-methylphenyl)-1-(2-methylpyridin-4-yl)-3-(4-(piperidin-4-yl)phenyl)propan-1-one oxime], a half-maximal response (EC50) required 172 nM.

Molecule `Cc1cc(/C(CC(c2ccc(C(=O)NC3CC3)cc2)c2ccc(F)cc2F)=N/O)ccn1` (stereo not shown) [Example 432, N-Cyclopropyl-4-[1-(2,4-difluoro-phenyl)-3-[(E)-hydroxyimino]-3-(2-methyl-pyridin-4-yl)-propyl]-benzamide] had a concentration for a half-maximal effect (EC50) of 57 nM.

`Cc1ccccc1C(CC(=NO)c1ccncc1)c1ccc(N2CCCCC2)cc1` (racemic) [Example 40, 3-(4-Piperidin-1-yl-phenyl)-1-pyridin-4-yl-3-o-tolyl-propan-1-one oxime]: the concentration giving a half-maximal response (EC50) amounted to 34 nM.

In the case of `C#Cc1ccc([C@@H](CC(=NO)c2ccnc(C)c2)c2ccccc2C)cc1` [Example 287, (R)-3-(4-Ethynyl-phenyl)-1-(2-methyl-pyridin-4-yl)-3-o-tolyl-propan-1-one oxime], the response was half-maximal at 2 nM (EC50).

With `OCc1ccc(-c2ccc(C(C/C(=N\O)c3ccncc3)c3ccccc3)cc2)cc1` (stereo not shown) [Example 27, (E)-3-(4′-Hydroxymethyl-biphenyl-4-yl)-3-phenyl-1-pyridin-4-yl-propan-1-one oxime], the half-maximal effective concentration (EC50) was 92 nM.

The molecule `Cc1ccccc1[C@H](C/C(=N\O)c1ccc(=O)n(C)c1)c1ccc(C#N)cc1` [Example 498, (R,E)-4-(3-(Hydroxyimino)-3-(1-methyl-6-oxo-1,6-dihydropyridin-3-yl)-1-o-tolylpropyl)benzonitrile] returned a 50% effective concentration (EC50) of 7 nM.

Turning to `Cc1ccccc1[C@H](C/C(=N\O)c1ccc(=O)n(C)c1)c1ccc(C2CCNCC2)cc1` [Example 507, (R,E)-5-(1-(Hydroxyimino)-3-(4-(piperidin-4-yl)phenyl)-3-o-tolylpropyl)-1-methylpyridin-2(1H)-one], the half-maximal effective concentration (EC50) was 2370 nM.

On to `Cc1cc(/C(CC(c2ccc(-c3ccc(C(=O)O)s3)cc2)c2ccc(Cl)cc2F)=N/O)ccn1` (stereo not shown) [Example 457, 5-{4-[1-(4-Chloro-2-fluoro-phenyl)-3-[(E)-hydroxyimino]-3-(2-methyl-pyridin-4-yl)-propyl]-phenyl}-thiophene-2-carboxylic acid], for which it took 17 nM to reach a half-maximal effect (EC50).

Molecule `CCOC(=O)C1CCN(c2ccc([C@@H](C/C(=N\O)c3ccnc(C)c3)c3ccccc3C)cc2)CC1` [Example 265, 1-{4-[(R)-3-[(E)-Hydroxyimino]-3-(2-methyl-pyridin-4-yl)-1-o-tolyl-propyl]-phenyl}-piperidine-4-carboxylic acid ethyl ester] showed an EC50 of 12 nM.

For `Cc1cc(/C(CC(c2cccc(-c3cccc(C(=O)NCC(=O)O)c3)c2)c2ccccc2C)=N/O)ccn1` (stereo not shown) [Example 108, ({3′-[3-[(E)-Hydroxyimino]-3-(2-methyl-pyridin-4-yl)-1-o-tolyl-propyl]-biphenyl-3-carbonyl}-amino)-acetic acid], a half-maximal response (EC50) required 76 nM.

`Cc1cc(Cl)ccc1C(C/C(=N\O)c1ccc(=O)n(C)c1)c1ccc(NS(C)(=O)=O)cc1` (stereo not shown) [Example 353, N-{4-[1-(4-Chloro-2-methyl-phenyl)-3-[(E)-hydroxyimino]-3-(1-methyl-6-oxo-1,6-dihydro-pyridin-3-yl)-propyl]phenyl}-methanesulfonamide]: a half-maximal response (EC50) required 274 nM.

On to `CC(=O)N1CC(c2ccc([C@@H](C/C(=N\O)c3ccnc(C)c3)c3ccccc3C)cc2)C1` [Example 483], for which the 50% effective concentration (EC50) was found to be 31 nM.

Consider `Cc1cc(/C(C[C@H](c2ccc(C3CN(S(N)(=O)=O)C3)cc2)c2ccccc2C)=N/O)ccn1` [Example 485, (R,E)-3-(4-(3-(Hydroxyimino)-3-(2-methylpyridin-4-yl)-1-o-tolylpropyl)phenyl)azetidine-1-sulfonamide], for which the concentration giving a half-maximal response (EC50) is 21 nM.

The molecule `Cc1cc(/C(C[C@H](c2ccc(Br)cc2)c2ccc(F)cc2F)=N/O)ccn1` (single isomer, unassigned) [Example 426, (−)-3-(4-Bromo-phenyl)-3-(2,4-difluoro-phenyl)-1-(2-methyl-pyridin-4-yl)-propan-1-one oxime] registered an EC50 of 41 nM.

As for `COCCc1nnc(-c2ccc([C@@H](C/C(=N\O)c3ccnc(C)c3)c3ccccc3C)cc2)o1` [Example 420, ((−), E)-3-{4-[5-(2-Methoxy-ethyl)[1,3,4]oxadiazol-2-yl]-phenyl}-1-(2-methyl-pyridin-4-yl)-3-o-tolyl-propan-1-one oxime], the EC50 came out at 15 nM.

`CC(=O)NCCNC(=O)c1ccc(C(C/C(=N\O)c2ccc(=O)n(C)c2)c2ccccc2C)cc1` (stereo not shown) [Example 246, (E)-N-(2-Acetamidoethyl)-4-(3-(hydroxyimino)-3-(1-methyl-6-oxo-1,6-dihydropyridin-3-yl)-1-o-tolylpropyl)benzamide]: the EC50 came to 2180 nM.

The molecule `Cc1cc(C(CC(c2ccc(-c3ccc(F)c(C(=O)O)c3)cc2)c2ccccc2C)=NO)ccn1` (racemic) [Example 113, 4-Fluoro-4′-[3-[hydroxyimino]-3-(2-methyl-pyridin-4-yl)-1-o-tolyl-propyl]-biphenyl-3-carboxylic acid] registered an EC50 of 215 nM.

Take `Cc1ccccc1[C@H](C/C(=N/O)c1ccc(=O)n(C)c1)c1ccc(C#N)cc1` [Example 499, (R,Z)-4-(3-(hydroxyimino)-3-(1-methyl-6-oxo-1,6-dihydropyridin-3-yl)-1-o-tolylpropyl)benzonitrile]: the midpoint of the response, the EC50, lay at 4500 nM.

As for `Cc1ccccc1C(CC(=NO)c1ccncc1)c1cccc(C(=O)O)c1` (racemic) [Example 71, 3-{3-[Hydroxyimino]-3-pyridin-4-yl-1-o-tolyl-propyl}-benzoic acid], the concentration giving a half-maximal response (EC50) was determined as 1620 nM.

The molecule `COCCNC(=O)c1ccc(C(C/C(=N\O)c2ccc(=O)n(C)c2)c2ccccc2Cl)cc1F` (stereo not shown) [Example 232, (E)-4-(1-(2-Chlorophenyl)-3-(hydroxyimino)-3-(1-methyl-6-oxo-1,6-dihydropyridin-3-yl)propyl)-2-fluoro-N-(2-methoxyethyl)benzamide] gave a 50% effective concentration (EC50) of 137 nM.

For `Cc1ccccc1C(C/C(=N\O)c1ccc(=O)n(C)c1)c1ccc(C(=O)N[C@@H](CO)C(C)C)cc1` (stereo partly drawn) [Example 305, N—((R)-1-hydroxy-3-methylbutan-2-yl)-4-((E)-3-(hydroxyimino)-3-(1-methyl-6-oxo-1,6-dihydropyridin-3-yl)-1-o-tolylpropyl)benzamide], the midpoint of the response, the EC50, lay at 1630 nM.
